A word on the inhibition: it is how much of the control response was suppressed. As a reminder, the IC50 is the point on the concentration scale where inhibition reaches its midpoint. The low end stands for greater potency, the high end for weaker potency.

Data on ten molecules can be found in PMC3427755 (Organic & biomolecular chemistry, 2012).

For data set [1], the target named is B-Raf^V600E (Homo sapiens, UniProt P15056, V600E). In words: In vitro B-Raf kinase assay. It is filed as biochemical.
B-Raf^V600E, sequence (P15056 433-726 V600E): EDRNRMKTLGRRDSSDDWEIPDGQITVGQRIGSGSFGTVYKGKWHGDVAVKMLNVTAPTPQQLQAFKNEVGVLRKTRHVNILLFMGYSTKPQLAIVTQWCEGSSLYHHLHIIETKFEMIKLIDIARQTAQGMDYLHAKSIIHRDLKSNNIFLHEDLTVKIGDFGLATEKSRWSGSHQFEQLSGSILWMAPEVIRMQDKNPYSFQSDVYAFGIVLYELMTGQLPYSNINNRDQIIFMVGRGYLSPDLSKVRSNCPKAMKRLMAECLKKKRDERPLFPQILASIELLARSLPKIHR
Data set [2] has as its target B-Raf^WT (Homo sapiens, UniProt P15056). In words: In vitro B-Raf kinase assay. It is filed as biochemical. To be noted: for inhibition at 2 µM: read-out: Inhibition rate (%) B-Raf.
The subject of data set [3] is A375 (B-Raf^V600E) malignant melanoma cells. In words: Anti-proliferation activity, A375 melanoma cells. It is filed as cell-based, human. To be noted: for inhibition at 10 µM: Homo sapiens, A-375, read-out: Tumor growth inhibition rate A375(B-Raf^V600E); for Tumor growth inhibition rate A375(B-Raf^V600E): [I]=10μM.
Data set [4] relates to SW620 (B-Raf^WT) human colonic carcinoma cells. In words: Anti-proliferation activity, SW620 cells. It is filed as cell-based. To be noted: SW-620, read-out: Tumor growth inhibition rate SW620 (B-Raf).
Data set [5] has as its system 1205Lu (B-Raf^V600E bearing) melanoma cells. In words: Melanoma proliferation assay. It is filed as cell-based, human. The conditions noted are these: dose-dependent, 72 h, Figure 3.
The test system of data set [6] is WM983B (B-Raf^V600E bearing) melanoma cells. In words: Melanoma proliferation assay. It is filed as cell-based, human. The conditions noted are these: dose-dependent, 72 h, Figure 3.
Data set [7] concerns WM3918 melanoma cells not expressing mutant B-Raf. In words: Melanoma proliferation assay. It is filed as cell-based, human. To be noted: dose-dependent, 72 h, Figure 3.
In data set [8] the test system is normal human primary fibroblasts (FF2508). Briefly: Proliferation assay. It is filed as cell-based. The conditions noted are these: dose-dependent, 72 h, Figure 3.
Data set [9] has as its target SRC (Homo sapiens, UniProt P12931). In words: Kinase profiling, SRC. It is filed as biochemical. To be noted: read-out: Inhibition rate (%) SRC.
The target in data set [10] is LCK (Homo sapiens, UniProt P06239). In words: Kinase profiling, LCK. To be noted: read-out: Inhibition rate (%) LCK. It is filed as biochemical.
Data set [11] concerns the target KDR (Homo sapiens, UniProt P35968). Briefly: Kinase profiling, KDR. To be noted: read-out: Inhibition rate (%) KDR. It is filed as biochemical.
Data set [12] has as its target CDK2 (Homo sapiens, UniProt P24941). Briefly: Kinase profiling, CDK2. It is filed as biochemical. To be noted: read-out: Inhibition rate (%) CDK2.
The target in data set [13] is ERK1 (Homo sapiens, UniProt P27361). In words: Kinase profiling, ERK1. It is filed as biochemical. To be noted: read-out: Inhibition rate (%) ERK1.
ERK1, sequence (P27361 whole entry, species assumed): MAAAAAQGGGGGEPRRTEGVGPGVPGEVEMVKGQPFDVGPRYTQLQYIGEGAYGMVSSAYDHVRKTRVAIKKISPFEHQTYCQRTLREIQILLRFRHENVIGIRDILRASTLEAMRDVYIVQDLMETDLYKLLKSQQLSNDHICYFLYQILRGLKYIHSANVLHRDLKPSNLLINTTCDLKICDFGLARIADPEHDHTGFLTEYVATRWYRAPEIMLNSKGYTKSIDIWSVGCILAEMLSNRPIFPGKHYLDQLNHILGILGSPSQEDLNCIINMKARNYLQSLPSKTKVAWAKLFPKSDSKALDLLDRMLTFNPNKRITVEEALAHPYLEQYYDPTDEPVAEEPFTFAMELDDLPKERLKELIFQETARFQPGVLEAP
In data set [14] the target is IGF1R (Homo sapiens, UniProt P08069). In words: Kinase profiling, IGF1R. To be noted: read-out: Inhibition rate (%) IGF1R. It is filed as biochemical.
IGF1R, sequence (P08069 31-1367, species assumed): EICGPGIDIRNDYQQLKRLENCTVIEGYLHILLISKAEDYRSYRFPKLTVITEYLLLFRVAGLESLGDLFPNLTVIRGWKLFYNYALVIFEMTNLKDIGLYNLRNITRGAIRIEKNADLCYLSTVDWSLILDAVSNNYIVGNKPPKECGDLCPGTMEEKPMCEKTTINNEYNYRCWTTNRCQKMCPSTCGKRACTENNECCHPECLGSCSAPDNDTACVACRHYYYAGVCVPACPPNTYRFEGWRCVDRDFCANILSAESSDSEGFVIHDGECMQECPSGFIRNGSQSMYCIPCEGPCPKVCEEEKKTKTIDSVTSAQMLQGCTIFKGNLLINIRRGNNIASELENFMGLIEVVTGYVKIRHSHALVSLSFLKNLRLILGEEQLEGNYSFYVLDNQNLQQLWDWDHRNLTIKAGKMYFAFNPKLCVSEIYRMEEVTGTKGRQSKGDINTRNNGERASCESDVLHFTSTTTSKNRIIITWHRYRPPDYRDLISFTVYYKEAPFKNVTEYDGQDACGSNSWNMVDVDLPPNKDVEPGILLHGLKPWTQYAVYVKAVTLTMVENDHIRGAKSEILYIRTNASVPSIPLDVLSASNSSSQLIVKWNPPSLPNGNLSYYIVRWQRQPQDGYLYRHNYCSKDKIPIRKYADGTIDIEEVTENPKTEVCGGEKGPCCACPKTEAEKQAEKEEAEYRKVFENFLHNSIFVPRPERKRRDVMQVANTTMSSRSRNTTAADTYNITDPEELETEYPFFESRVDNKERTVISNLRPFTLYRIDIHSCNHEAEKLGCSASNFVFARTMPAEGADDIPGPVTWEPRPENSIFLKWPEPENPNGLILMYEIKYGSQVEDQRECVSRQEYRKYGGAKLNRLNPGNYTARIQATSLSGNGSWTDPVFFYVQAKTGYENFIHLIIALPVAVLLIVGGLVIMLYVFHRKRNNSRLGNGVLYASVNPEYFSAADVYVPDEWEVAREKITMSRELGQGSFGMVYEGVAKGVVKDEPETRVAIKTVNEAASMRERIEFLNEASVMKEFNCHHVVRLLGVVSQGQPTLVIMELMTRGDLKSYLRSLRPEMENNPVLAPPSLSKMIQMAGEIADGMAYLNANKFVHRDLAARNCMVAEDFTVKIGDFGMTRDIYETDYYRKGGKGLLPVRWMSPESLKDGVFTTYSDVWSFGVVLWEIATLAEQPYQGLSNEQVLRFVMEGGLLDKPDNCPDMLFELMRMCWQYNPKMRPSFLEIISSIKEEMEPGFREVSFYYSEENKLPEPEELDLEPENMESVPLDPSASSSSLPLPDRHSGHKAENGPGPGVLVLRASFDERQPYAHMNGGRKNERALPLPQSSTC
The target in data set [15] is T1, IKKβ (Homo sapiens, UniProt O14920).
T1 sequence (O14920 1-756): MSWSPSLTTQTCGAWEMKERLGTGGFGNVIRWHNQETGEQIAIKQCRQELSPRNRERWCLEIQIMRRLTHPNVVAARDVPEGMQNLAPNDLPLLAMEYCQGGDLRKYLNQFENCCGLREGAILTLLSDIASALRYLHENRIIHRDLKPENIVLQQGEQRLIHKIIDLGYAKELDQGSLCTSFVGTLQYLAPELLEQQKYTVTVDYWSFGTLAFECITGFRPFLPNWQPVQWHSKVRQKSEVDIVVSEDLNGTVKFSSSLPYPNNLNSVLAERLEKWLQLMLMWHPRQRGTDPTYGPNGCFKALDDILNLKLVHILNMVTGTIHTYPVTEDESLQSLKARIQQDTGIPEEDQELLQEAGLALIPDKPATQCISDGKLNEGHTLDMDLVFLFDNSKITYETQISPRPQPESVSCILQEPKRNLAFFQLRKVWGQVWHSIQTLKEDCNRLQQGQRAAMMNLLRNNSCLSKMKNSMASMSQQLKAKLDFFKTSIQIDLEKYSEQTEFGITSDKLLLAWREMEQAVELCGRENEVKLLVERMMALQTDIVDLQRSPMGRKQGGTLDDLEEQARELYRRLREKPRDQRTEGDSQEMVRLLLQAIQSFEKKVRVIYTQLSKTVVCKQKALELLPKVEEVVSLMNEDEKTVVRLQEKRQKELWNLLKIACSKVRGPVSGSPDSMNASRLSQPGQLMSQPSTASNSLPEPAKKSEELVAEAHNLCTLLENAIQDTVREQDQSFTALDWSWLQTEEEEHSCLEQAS
Briefly: Kinase profiling, IKKβ. The conditions noted are these: read-out: Inhibition rate (%) IKKβ. It is filed as biochemical.

Data set [16] concerns the target PKCα (Homo sapiens, UniProt P17252). Briefly: Kinase profiling, PKCα. It is filed as biochemical. To be noted: read-out: Inhibition rate (%) PKCα.
The target in data set [17] is PDGFRα (Homo sapiens, UniProt P16234). In words: Kinase profiling, PDGFRα. It is filed as biochemical. The conditions noted are these: read-out: Inhibition rate (%) PDGFRα.
Data set [18] concerns the target EGFR (Homo sapiens, UniProt P00533). In words: Kinase profiling, EGFR. It is filed as biochemical. To be noted: read-out: Inhibition rate (%) EGFR.
Data set [19] deals with FGFR1 (Homo sapiens, UniProt P11362). In words: Kinase profiling, FGFR1. It is filed as biochemical. To be noted: read-out: Inhibition rate (%) FGFR1.
The target in data set [20] is AKT1 (Homo sapiens, UniProt P31749). In words: Kinase profiling, AKT1. To be noted: read-out: Inhibition rate (%) AKT1. It is filed as biochemical.
AKT1, sequence (P31749 whole entry, species assumed): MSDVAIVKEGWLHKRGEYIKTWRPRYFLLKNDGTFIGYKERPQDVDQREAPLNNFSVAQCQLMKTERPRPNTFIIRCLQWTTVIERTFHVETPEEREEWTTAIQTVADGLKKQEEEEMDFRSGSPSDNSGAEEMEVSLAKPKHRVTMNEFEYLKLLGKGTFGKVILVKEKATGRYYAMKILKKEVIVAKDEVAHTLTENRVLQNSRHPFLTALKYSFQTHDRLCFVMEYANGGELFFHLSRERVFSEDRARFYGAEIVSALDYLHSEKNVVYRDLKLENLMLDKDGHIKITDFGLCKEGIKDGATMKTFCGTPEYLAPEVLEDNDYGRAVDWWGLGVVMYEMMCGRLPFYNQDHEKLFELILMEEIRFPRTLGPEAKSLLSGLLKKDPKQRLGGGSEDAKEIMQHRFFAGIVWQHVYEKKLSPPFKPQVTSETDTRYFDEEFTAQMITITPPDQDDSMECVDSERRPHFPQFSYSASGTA
Data set [21] deals with MET (Homo sapiens, UniProt P08581). In words: Kinase profiling, MET. It is filed as biochemical. To be noted: read-out: Inhibition rate (%) MET.
MET, sequence (P08581 25-1390): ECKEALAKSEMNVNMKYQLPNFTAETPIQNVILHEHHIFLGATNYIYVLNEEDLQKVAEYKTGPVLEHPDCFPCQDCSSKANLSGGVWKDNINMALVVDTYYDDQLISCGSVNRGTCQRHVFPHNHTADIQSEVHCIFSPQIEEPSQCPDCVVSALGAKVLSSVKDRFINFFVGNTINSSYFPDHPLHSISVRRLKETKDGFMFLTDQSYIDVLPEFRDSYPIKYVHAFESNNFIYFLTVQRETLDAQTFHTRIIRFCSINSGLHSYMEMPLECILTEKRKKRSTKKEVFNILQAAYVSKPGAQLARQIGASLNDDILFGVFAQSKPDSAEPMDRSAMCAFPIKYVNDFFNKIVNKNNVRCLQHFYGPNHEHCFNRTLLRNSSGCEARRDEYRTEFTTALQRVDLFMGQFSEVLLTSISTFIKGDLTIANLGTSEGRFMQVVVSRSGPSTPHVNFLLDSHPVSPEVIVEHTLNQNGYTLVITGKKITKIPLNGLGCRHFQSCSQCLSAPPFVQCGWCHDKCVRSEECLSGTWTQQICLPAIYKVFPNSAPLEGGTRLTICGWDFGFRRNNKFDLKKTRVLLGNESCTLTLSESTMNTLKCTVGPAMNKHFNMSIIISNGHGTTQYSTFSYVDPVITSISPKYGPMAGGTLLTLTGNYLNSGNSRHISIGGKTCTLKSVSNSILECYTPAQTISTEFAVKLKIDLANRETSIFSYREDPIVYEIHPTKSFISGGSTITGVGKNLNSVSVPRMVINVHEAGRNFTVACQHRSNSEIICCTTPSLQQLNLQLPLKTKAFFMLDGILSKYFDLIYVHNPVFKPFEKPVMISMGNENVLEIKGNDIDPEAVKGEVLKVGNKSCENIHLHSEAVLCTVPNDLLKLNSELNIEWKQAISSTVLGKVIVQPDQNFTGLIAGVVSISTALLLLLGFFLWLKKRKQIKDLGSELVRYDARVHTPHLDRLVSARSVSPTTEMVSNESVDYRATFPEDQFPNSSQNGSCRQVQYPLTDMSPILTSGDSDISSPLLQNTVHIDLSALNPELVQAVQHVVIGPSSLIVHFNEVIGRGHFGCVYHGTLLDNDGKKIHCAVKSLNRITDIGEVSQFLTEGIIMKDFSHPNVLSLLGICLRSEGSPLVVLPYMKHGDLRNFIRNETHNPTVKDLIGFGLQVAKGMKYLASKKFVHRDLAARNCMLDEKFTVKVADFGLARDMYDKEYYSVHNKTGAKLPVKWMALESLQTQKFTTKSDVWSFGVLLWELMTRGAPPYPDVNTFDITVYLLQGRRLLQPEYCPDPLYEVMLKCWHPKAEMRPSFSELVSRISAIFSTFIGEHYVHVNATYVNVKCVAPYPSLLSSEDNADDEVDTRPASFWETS
The target in data set [22] is cKIT (Homo sapiens, UniProt P10721). In words: Kinase profiling, cKIT. To be noted: read-out: Inhibition rate (%) cKIT. It is filed as biochemical.
cKIT, sequence (P10721 26-976): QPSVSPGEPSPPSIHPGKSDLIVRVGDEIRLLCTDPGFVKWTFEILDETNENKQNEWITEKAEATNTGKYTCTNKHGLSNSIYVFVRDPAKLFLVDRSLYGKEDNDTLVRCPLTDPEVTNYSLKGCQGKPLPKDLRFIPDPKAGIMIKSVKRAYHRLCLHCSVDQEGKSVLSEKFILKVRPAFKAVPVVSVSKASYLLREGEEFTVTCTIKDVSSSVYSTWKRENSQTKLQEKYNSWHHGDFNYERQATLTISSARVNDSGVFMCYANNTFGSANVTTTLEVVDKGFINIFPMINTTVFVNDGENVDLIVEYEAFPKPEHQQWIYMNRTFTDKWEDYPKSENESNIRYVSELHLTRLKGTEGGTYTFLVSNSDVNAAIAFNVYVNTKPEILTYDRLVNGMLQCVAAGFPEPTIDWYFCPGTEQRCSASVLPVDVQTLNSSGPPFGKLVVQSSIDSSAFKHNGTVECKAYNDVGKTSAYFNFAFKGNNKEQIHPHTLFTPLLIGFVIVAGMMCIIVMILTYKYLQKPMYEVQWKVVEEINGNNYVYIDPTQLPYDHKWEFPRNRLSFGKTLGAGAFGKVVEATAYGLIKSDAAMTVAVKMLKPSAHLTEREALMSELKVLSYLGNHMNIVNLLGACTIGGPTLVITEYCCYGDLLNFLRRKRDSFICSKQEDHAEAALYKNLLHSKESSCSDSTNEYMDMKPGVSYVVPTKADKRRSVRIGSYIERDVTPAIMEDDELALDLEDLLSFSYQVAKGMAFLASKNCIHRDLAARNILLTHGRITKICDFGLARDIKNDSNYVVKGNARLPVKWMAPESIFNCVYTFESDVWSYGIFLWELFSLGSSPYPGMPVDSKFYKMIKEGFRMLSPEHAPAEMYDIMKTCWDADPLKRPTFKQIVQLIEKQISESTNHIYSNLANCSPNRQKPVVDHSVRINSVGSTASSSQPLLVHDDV
In data set [23] the test system is patients harboring the B-Raf^V600E mutation. To be noted: cited from earlier work.
Setting [24] is: read-out: Inhibition rate (%) B-Raf^V600E.

Entries after “also recorded” stand apart in the source; their conditions may differ. Like-named read-outs stand apart in the source and are kept apart here.

B-Raf^WT, sequence (P15056 433-726): as the sequence (P15056 433-726 V600E) above, with E168V counted along it

Take `O=C1C(=Cc2ccc(-c3ccccc3[N+](=O)[O-])o2)Cc2ccccc21` [Compound 16a, 2-[5-(2-nitro-phenyl)-furan-2-ylmethylene]-indan-1-one]: the inhibition at 0.5 µM in [1] (read-out: Inhibition rate (%) B-Raf^V600E, 0.5μM of compound) came out at 47%. The inhibition at 2 µM in data set [1] (read-out: Inhibition rate (%) B-Raf^V600E, 2μM of compound) was above 50%; in data set [2], 11%. Besides, in data set [3], the inhibition at 10 µM stood at 16.5%.

Regarding `COc1cccc(-c2ccc(C=C3C(=O)NC(=S)NC3=O)o2)c1` [Compound 22b, 5-[5-(3-methoxy-phenyl)-furan-2ylmethylene]-2-thioxo-dihydro-pyrimidine-4,6-dione], the inhibition at 0.5 µM in data set [1] (setting [24]) turned out to be 34%. The figures for the inhibition at 2 µM in [1] (setting [24]) and in data set [2] were 63% and 6%, respectively. In addition, the inhibition at 10 µM in data set [3] was 26.2%.

With `O=C1NC(=S)NC(=O)C1=Cc1ccc(-c2ccc([N+](=O)[O-])cc2)o1` [Compound 22c, 5-[5-(4-nitro-phenyl)-furan-2ylmethylene]-2-thioxo-dihydro-pyrimidine-4,6-dione], the inhibition at 2 µM in [1] (setting [24]) came to 59%; in data set [2], 55%. For the same molecule, the inhibition at 10 µM in data set [3] was 46.3%.

Consider `O=C1NC(=S)NC(=O)C1=Cc1ccc(-c2ccc(Cl)cc2)o1` [Compound 22e, 5-[5-(4-chloro-phenyl)-furan-2ylmethylene]-2-thioxo-dihydro-pyrimidine-4,6-dione], for which, in data set [1] (setting [24]), the inhibition at 0.5 µM came to 33% and the inhibition at 2 µM is 69%. Further, in data set [2], the inhibition at 2 µM was 15%. Besides, in data set [3], the inhibition at 10 µM was 82.9% and the “Tumor growth inhibition rate A375(B-Raf^V600E)” value is recorded as “potent growth inhibition activity”. In addition, the inhibition at 10 µM in data set [4] was 9%.

Consider `Cc1ccc(-c2ccc(C=C3C(=O)NC(=S)NC3=O)o2)cc1` [Compound 22g, 5-[5-(4-methyl-phenyl)-furan-2ylmethylene]-2-thioxo-dihydro-pyrimidine-4,6-dione], for which the inhibition at 0.5 µM in data set [1] (setting [24]) is 50%. Moreover, the inhibition at 2 µM worked out at 59% in [1] (setting [24]) and 17% in data set [2]. Also, the inhibition at 10 µM in [3] was found to be 84%; in [4], 3.6%. Also, in data set [3] (10 µM), the “Tumor growth inhibition rate A375(B-Raf^V600E)” value was “potent growth inhibition activity; also recorded: virtually complete growth inhibition”.

Turning to `COc1ccc(-c2ccc(C=C3C(=O)NC(=S)NC3=O)o2)cc1` [Compound 22h, 5-[5-(4-methoxy-phenyl)-furan-2ylmethylene]-2-thioxo-dihydro-pyrimidine-4,6-dione], the IC50 was found to be 2690 nM in data set [1] and 3690 nM in [2]. The inhibition at 10 µM is 94.4% in data set [3] and 13% in data set [4]. Moreover, the “Tumor growth inhibition rate A375(B-Raf^V600E)” value in [3] (10 µM) was “potent growth inhibition activity; also recorded: virtually complete growth inhibition”.

For `CC(C)(C)c1ccc(-c2ccc(C=C3C(=O)NC(=S)NC3=O)o2)cc1` [Compound 22i, 5-[5-(4-tert-butyl-phenyl)-furan-2ylmethylene]-2-thioxo-dihydro-pyrimidine-4,6-dione], in [1] (setting [24]), the inhibition at 0.5 µM is 36%. The figures for the inhibition at 2 µM in data set [1] (setting [24]) and in data set [2] were 57% and 29%, respectively. Moreover, the results for the inhibition at 10 µM in [3] and in [4] were 95.4% and 7.6%, respectively. Also, the “Tumor growth inhibition rate A375(B-Raf^V600E)” value in data set [3] (10 µM) was “potent growth inhibition activity; also recorded: virtually complete growth inhibition”.

As for `O=C1NC(=S)NC(=O)C1=Cc1ccc(-c2ccc3ccccc3c2)o1` [Compound 22j, 5-[5-(2-naphthyl)-furan-2ylmethylene]-2-thioxo-dihydro-pyrimidine-4,6-dione], the values for the IC50 in data set [1] and in data set [2] were 1070 nM and 1930 nM, respectively. In data set [3], the inhibition at 10 µM came to 6.9%.

Take `O=C1NC(=S)NC(=O)C1=Cc1ccc(-c2ccc3c(c2)OCO3)o1` [Compound 22q, 5-[5-(3,4-methylenedioxy)-furan-2ylmethylene]-2-thioxo-dihydro-pyrimidine-4,6-dione]: in data set [1] (panel of 16 protein kinases), the “selectivity for B-Raf^V600E over other tested protein kinases” value is reported as “more than 10 fold”. Besides, the figures for the inhibition at 10 µM in data set [3] and in data set [4] were 77.7% and 47.7%, respectively. In addition, the “Tumor growth inhibition rate A375(B-Raf^V600E)” value in [3] is listed as “potent growth inhibition activity”. For the same molecule, the “proliferation of 1205Lu cells” value in data set [5] is “significantly inhibited”. For the same molecule, in data set [6], the “proliferation of WM983B cells” value was “significantly inhibited”. Further, the “proliferation of WM3918 cells” value in [7] was “significantly more resistant”. In addition, the “proliferation of FF2508 fibroblasts” value in data set [8] is “significantly more resistant”. Also, the inhibition at 1 µM in data set [9] was found to be 6.2%; in data set [12] it was 3.3%; in data set [13], 10%; in [14], 5.6%; in [15], 15%; in data set [17], 6%. The inhibition at 1 µM in data set [19] came to 4.9%; in [20] it was 4.6%; in data set [21], 18.6%; in data set [22] it was 18.3%. Moreover, the inhibition at 5 µM turned out to be 15.2% in [9]; 0.8% in [10]; 1.2% in [11]; 12.6% in data set [12]; 13.7% in [13]; 6.8% in data set [14]. The inhibition at 5 µM in data set [15] was found to be 35.7%; in data set [16], 5.2%; in data set [17] it was 7.7%; in [18], 19.4%; in data set [19] it was 18.6%; in data set [20], 14.5%. Further, the inhibition at 5 µM in data set [21] was 19.4%; in data set [22], 20%.

In the case of `CCCS(=O)(=O)Nc1ccc(F)c(C(=O)c2c[nH]c3ncc(-c4ccc(Cl)cc4)cc23)c1F` [Vemurafenib], the “side effects in treated patients” value in data set [23] (Vemurafenib treated patients) is “induction of keratoacanthoma was frequently observed”. The “tumor regression in patients” value in [23] (patients harboring the B-Raf^V600E mutation) is “complete or partial tumor regression in the majority of patients”.
